Source: patent US20230219962A1, “PYRAZOLO[4,3-d]PYRIMIDINE DERIVATIVES AND METHODS OF USE THEREOF FOR THE TREATMENT OF CELLULAR PROLIFERATIVE DISORDERS” (Merck Sharp & Dohme LLC, priority 2020, published 2023)

Columns and labels:
hTLR7 = target: T1, hTLR7 (Homo sapiens, UniProt Q9NYK1); experiment: Human TLR7 Reporter Assay; type: cell-based; settings: HEK-Blue hTLR7 cells, 16 hours, normalized to CL097 (6 μM) and DMSO
T1 construct: host or cells: HEK-Blue hTLR7 cells (HEK293-derived, own knowledge)
T1 sequence (Q9NYK1 27-1049): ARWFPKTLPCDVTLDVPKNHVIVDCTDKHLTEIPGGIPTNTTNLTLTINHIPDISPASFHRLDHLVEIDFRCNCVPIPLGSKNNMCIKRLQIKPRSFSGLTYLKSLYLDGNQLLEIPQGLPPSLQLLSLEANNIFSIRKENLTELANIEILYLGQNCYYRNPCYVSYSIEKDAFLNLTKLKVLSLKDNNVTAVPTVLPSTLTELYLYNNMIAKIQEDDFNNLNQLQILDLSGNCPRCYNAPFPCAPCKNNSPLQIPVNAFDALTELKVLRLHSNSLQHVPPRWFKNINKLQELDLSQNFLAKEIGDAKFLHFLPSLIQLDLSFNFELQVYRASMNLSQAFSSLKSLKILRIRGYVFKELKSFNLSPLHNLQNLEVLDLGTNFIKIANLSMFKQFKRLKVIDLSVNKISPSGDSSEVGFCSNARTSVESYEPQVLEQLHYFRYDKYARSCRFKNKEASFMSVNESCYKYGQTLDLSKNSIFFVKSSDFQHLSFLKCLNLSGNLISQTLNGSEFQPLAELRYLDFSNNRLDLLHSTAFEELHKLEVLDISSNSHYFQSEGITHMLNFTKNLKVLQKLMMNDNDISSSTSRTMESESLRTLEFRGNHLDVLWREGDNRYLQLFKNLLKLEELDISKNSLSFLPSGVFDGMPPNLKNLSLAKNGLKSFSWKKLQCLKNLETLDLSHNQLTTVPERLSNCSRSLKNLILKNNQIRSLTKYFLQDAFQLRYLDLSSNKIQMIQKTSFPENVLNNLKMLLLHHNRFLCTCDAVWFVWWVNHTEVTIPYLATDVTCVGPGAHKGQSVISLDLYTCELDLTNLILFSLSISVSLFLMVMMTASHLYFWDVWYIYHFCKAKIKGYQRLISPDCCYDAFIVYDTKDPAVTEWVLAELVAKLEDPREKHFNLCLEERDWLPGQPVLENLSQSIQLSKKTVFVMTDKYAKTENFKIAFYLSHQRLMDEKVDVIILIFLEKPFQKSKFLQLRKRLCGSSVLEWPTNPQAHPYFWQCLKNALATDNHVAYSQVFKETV
Description: (§1) HEK-Blue™ hTLR7 cells (Invivogen, San Diego, Calif.) were maintained at 37° C./5% CO2/90% relative humidity in Dulbecco's Modified Eagle's Medium with 10% fetal bovine serum, 100 units/mL penicillin, 100 μg/mL streptomycin, 100 μg/mL normocin, 10 μg/mL blasticidin, and 100 μg/mL zeocin. HEK-Blue™ hTLR7 cells were maintained at 10-90% confluence and used before passage 20. For this assay, test compounds were dissolved in DMSO, and 10-point serial 3-fold dilution series in DMSO were prepared in Echo Qualified 384-well Polypropylene Microplates (Labcyte, San Jose, Calif.). Assay plates (384-well flat, clear bottom, black polystyrene TC-treated microtiter plates; Corning, Corning, N.Y.) were prepared by dispensing 150 nL of test compounds, high control (CL097; Invivogen, San Diego, Calif.), and low control (DMSO) by ECHO acoustic dispenser (Labcyte, San Jose Calif.) followed by addition of 5 μL of HEK-Blue™ Detection assay media (Invivogen, San Diego, Calif.). HEK-Blue™ hTLR7 cells in HEK-Blue™ Detection assay media (20,000 cells per well in 45 μL of media) were added to the assay plate and incubated for 16 hours at 37° C./5% CO2/90% relative humidity. For detection, assay plates were removed from the incubator, allowed to cool to ambient temperature, centrifuged at 200×g for 1 minutes, and read with an EnSpire Multimode Plate Reader (Perkin Elmer, Waltham, Mass.) for absorbance at 620 nm. Test compound effects were normalized to the window defined by the controls, CL097 (6 μM), and DMSO. Calculated % effects were fit using a 4-parameter algorithm, and EC50 was reported.

hTLR8 = target: T2, hTLR8 (Homo sapiens, UniProt Q9NR97); experiment: Human TLR8 Reporter Assay; type: cell-based; settings: HEK-Blue hTLR8 cells, 16 hours, normalized to tl8-506 (1 μM) and DMSO
T2 construct: host or cells: HEK-Blue hTLR8 cells (HEK293-derived, own knowledge)
T2 sequence (Q9NR97 27-1041): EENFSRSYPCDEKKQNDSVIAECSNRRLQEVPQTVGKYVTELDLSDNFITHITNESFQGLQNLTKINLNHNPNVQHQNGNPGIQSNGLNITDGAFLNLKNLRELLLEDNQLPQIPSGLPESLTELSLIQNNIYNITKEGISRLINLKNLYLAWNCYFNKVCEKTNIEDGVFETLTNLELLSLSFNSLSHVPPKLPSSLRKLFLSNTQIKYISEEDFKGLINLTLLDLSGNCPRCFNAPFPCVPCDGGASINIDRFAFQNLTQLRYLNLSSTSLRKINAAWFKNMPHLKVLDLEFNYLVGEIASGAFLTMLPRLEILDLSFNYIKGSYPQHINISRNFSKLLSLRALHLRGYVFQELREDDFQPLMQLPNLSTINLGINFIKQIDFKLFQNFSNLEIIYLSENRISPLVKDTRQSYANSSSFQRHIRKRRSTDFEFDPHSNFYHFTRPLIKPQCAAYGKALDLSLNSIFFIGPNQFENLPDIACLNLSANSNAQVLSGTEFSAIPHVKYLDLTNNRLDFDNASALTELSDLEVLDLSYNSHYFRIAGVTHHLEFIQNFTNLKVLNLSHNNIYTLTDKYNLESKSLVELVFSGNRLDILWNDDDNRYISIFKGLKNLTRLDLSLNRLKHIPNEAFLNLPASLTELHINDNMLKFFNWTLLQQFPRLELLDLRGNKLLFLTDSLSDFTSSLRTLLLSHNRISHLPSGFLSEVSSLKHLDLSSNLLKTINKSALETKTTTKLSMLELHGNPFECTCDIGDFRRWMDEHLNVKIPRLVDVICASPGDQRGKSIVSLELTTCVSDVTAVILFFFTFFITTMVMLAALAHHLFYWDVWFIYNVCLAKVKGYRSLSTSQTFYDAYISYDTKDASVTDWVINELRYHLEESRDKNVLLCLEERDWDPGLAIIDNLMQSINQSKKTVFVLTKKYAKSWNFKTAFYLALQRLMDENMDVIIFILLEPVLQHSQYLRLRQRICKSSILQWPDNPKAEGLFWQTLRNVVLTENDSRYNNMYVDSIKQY
Description: as §1, with “hTLR8” for “hTLR7”, “(tl8-506;” for “(CL097;”, “tl8-506 (1” for “CL097 (6”

Row | SMILES | EC50 (hTLR7) [nM] | EC50 (hTLR8) [nM]
1 | CCCCNc1nc(N)nc2cnn(Cc3c(OC)cc(CN4CCNCC4)cc3OC)c12 [Compound 63] | 50.8 | 2410
2 | CCCCNc1nc(N)nc2cn(Cc3sc(C)nc3C)nc12 [Compound 175] | 112 | 1110
3 | CCC[C@@H](CO)Nc1nc(N)nc2cn(Cc3c(OC)cc(CN)cc3OC)nc12 [Compound 152] | 185 | 122
4 | CCCCNc1nc(N)nc2cn(Cc3cc(C)nn3C)nc12 [Compound 173] | 246 | 2730
5 | CCCCNc1nc(N)nc2cn(Cc3nc(NCCCN)ccc3OC)nc12 [Compound 162] | 160 | 1010
6 | C=CC(=O)NC[C@H]1CC[C@H](C(=O)N2CCN(c3ccc(Cn4cc5nc(N)nc(NCCCC)c5n4)c(OC)c3)CC2)CC1 [Compound 120] | 112 | 2220
7 | CCCCNc1nc(N)nc2cn(Cc3ncc(CN4C(=O)C=CC4=O)cc3OC)nc12 [Compound 110] | 553 | 3680
8 | CCCCNc1nc(N)nc2cn(Cc3c(OC)cc(N4CCNCC4)cc3OC)nc12 [Compound 64] | 518 | 348
9 | CCC[C@@H](CO)Nc1nc(N)nc2cn(Cc3c(OC)cc(C(C)N)cc3OC)nc12 (stereo partly shown) [Compound 224] | 3650 | 2250
10 | CCCCNc1nc(N)nc2cn(Cc3nccnc3OC)nc12 [Compound 111] | 81.8 | 597
11 | CCCC(C)Nc1nc(N)nc2cn(Cc3c(OC)cc(CNC)cc3OC)nc12 (stereo not shown) [Compound 164] | 110 | 168
12 | CCCCNc1nc(N)nc2cn(Cc3c(OC)cccc3OCCCC(=O)OC)nc12 [Compound 206] | 380 | 2640
13 | CCCCNc1nc(N)nc2cn(Cc3c(OC)cc(NCCN)cc3OC)nc12 [Compound 114] | 529 | 4490
14 | CCCCNc1nc(N)nc2cn(Cc3cncn3C3CC3)nc12 [Compound 182] | 929 | 3360
15 | CCCCNc1nc(N)nc2cn(Cc3ncc(NCCCN)cc3OC)nc12 [Compound 129] | 293 | 1360
16 | CCCCNc1nc(N)nc2cn(Cc3ccc(CN4CCN(C(=O)CCN5C(=O)C=CC5=O)CC4)cc3)nc12 [Compound 119] | 6650 | 22500
17 | CCC[C@@H](CO)Nc1nc(N)nc2cn(Cc3c(OC)cc(CN(C)CCNC(=O)c4cccnc4)cc3OC)nc12 [Compound 218] | 6360 | 1490
18 | CCC[C@@H](CO)Nc1nc(N)nc2cn(Cc3c(OC)cc(CN(C)CCN)cc3OC)nc12 [Compound 213] | 4750 | 2230
19 | CCC[C@@H](CO)Nc1nc(N)nc2cn(Cc3c(OC)cc(CNC)cc3OC)nc12 [Compound 154] | 1080 | 4150
20 | COCCNc1nc(N)nc2cn(Cc3c(OC)cccc3OC)nc12 [Compound 46] | 353 | 1080
21 | CCC[C@H](C)Nc1nc(N)nc2cn(Cc3c(OC)cc(Br)cc3OC)nc12 [Compound 184] | 103 | 728
22 | CCCCNc1nc(N)nc2cn(Cc3ccc4c(c3)CCC4N)nc12 (stereo not shown) [Compound 238] | 254 | 1880

Continued, values first:

Row | EC50 (hTLR7) [nM] | EC50 (hTLR8) [nM] | SMILES
23 | 50.7 | 1090 | CCCCNc1nc(N)nc2cn(Cc3ccc(C(C)N(C)CCC)cc3OC)nc12 (stereo not shown) [Compound 240]
24 | 93 | 632 | CCCCNc1nc(N)nc2cn(Cc3ccc(N)cc3OC)nc12 [Compound 166]
25 | 1410 | > 9980 | CCCCNc1nc(N)nc2cn(C(C)c3ccccc3OC)nc12 (stereo not shown) [Compound 102]
26 | 214 | 1010 | CCCCCNc1nc(N)nc2cn(Cc3c(OC)cccc3OC)nc12 [Compound 28]
27 | 10700 | 10800 | CCCCNc1nc(N)nc2cn(Cc3ccc(C(N)CN)cc3OC)nc12 (stereo not shown) [Compound 227]
28 | 496 | > 29900 | COc1cccc(OC)c1Cn1cc2nc(N)nc(NCCCC(C)C)c2n1 [Compound 54]
29 | 370 | 590 | CCCCNc1nc(N)nc2cn(Cc3cc(CNC)ccc3OC)nc12 [Compound 148]
30 | 153 | 1260 | CCCCNc1nc(N)nc2cn(Cc3cnccc3OC)nc12 [Compound 101]
31 | 474 | 224 | CCCCNc1nc(N)nc2cn(Cc3c(OC)cc(C(C)N)cc3OC)nc12 (stereo not shown) [Compound 215]
32 | 139 | 137 | CCCCNc1nc(N)nc2cn(Cc3ccc(C(C)NC)cc3OC)nc12 (stereo not shown) [Compound 194]
